Assay results reported in US11278575B2, “Compositions and methods for the treatment of demyelinating conditions” (Duke University, priority 2018, dated 2022).

Legend:
[1] = system: DUOC-01 cells; experiment: Surface marker expression of DUOC-01 cells by flow cytometry after adding HC or Dex; assay type: cell-based, human; conditions: up to 4 hours after adding HC (3 mg/ml) or Dex (25 ng/ml)
Description: DUOC-01 cells were collected 4 hours after adding HC or dexamethasone (Dex). The expression of CD45 (FIG. 2A), CD11b (FIG. 2B), Trem2 (FIG. 2C), and CD14 (FIG. 2D) were analyzed by flow cytometry (n=6 per condition).
(§1) First, to test stability, day +21 DUOC-01 cells were harvested into ringers lactate and incubated with HC for up to 4 hours to determine whether there was any change in viability or stability.
(§2) DUOC-01 cells were cultured using standard procedures from cryopreserved and thawed cord blood units, then harvested on day 21 and re-suspended in Ringers. After initial count and viability, the cell suspension was divided into three conditions: (1) Ringer's solution, (2) 3 mg/ml HC, (3) 25 ng/ml Dex.
(§3) Based on previous stability studies, the cells were incubated for 4 hours at room temperature and characterized every hour for 4 hours. The viability of DUOC-01 cells over time was consistently greater with cells incubated with HC compared to DUOC-01 cells incubated with dexamethasone or Ringer's solution (FIG. 1).

[2] = system: DUOC-01 cells; experiment: Stability of day 21 DUOC-01 cells incubated with HC or Dex: viability (AOPI) and total viable cell count; assay type: cell-based, human; conditions: for Averaged total viable cell numbers: DUOC-01 cells in Ringers, HC 3 mg/ml or Dex 25 ng/ml, average of six experiments
Description: FIG. 1 illustrates that HC increases the viability of DUOC-01 cells over time. Viability was measured by AOPI using the Nexcelom Cellometer Auto 2000 (n=6 samples per time point; 2-way ANOVA p<0.001 for treatment factor; Tukey's post-hoc[…]).
as §1, §2, §3

[3] = system: corpus callosum of NSG mice treated with cuprizone; experiment: Cuprizone demyelination model, myelination score by LFB-PAS staining; assay type: in vivo; conditions: one week after injection into corpus callosum of CPZ-treated mice; 1×10^5 cells; cells incubated 2 hours in 3 mg/ml HC where HC is used
Source text: Myelination score based on LFB-PAS staining of mice one week after treatment of CPZ-treated mice with, Ringer's, Ringers+HC, DUOC-01 cells, or DUOC-01 cells exposed to HC (1×10^5 cell injected). […] Two independent, blinded readers scored coded LFB-PAS stained sections at the mid-line corpus callosum area, between zero and 3. Data are presented as mean ±SEM (ANOVA for cells P<0.001; n=9-16 mice per group, *P<0.05, Tukey's post-hoc test; pooled 2 independent experiments). […] DUOC-01 cells were cultured via standard procedures from frozen cord blood units in the GMP facility and harvested on day 21. After initial count and viability, the cell suspension was split into two conditions at a concentration of 20,000 cells/μl: (1) Ringers, and (2) Ringers +3 mg/ml HC. Based on previous stability studies, the cells were incubated in HC for 2 hours at room temperature prior to injections. To determine if HC would affect the ability of DUOC-01 cells to promote remyelination, Ringer's solution or DUOC-01 cells was injected into the corpus callosum of NSG mice treated with cuprizone, as previously described (Saha et al. JCI Insight 2016). One week following treatment, brains were harvested and analysis of myelination by LFB-PAS staining was conducted.

Row | Compound | Expression level of DUOC-01 surface markers (CD45, CD14, TREM2, CD11b) [1] | Averaged total viable cell numbers ([2]; 1 hr at room temperature) | Averaged total viable cell numbers ([2]; 2 hr at room temperature) | Averaged total viable cell numbers ([2]; 3 hr at room temperature) | Averaged total viable cell numbers ([2]; 4 hr at room temperature) | Viability of DUOC-01 cells over time (AOPI) ([2]; up to 4 hours, 3 mg/ml HC, compared with dexamethasone or Ringer's solution) | Remyelination (myelination score, LFB-PAS, mid-line corpus callosum) [3]
1 | C[C@]12CCC(=O)C=C1CC[C@@H]1[C@@H]2[C@@H](O)C[C@@]2(C)[C@H]1CC[C@]2(O)C(=O)CO [HC, hydrocortisone] | did not change the expression level | 959,688 | 821,667 | 910,604 | 742,000 | improved the viability | did not inhibit the ability of DUOC-01 cells to promote remyelination
2 | C[C@@H]1C[C@H]2[C@@H]3CCC4=CC(=O)C=C[C@]4(C)[C@@]3(F)[C@@H](O)C[C@]2(C)[C@@]1(O)C(=O)CO [Dexamethazone, dexamethasone] | – | 923,563 | 813,750 | 821,250 | 706,875 | – | –
